The results in this text go back to patent publication US20150141381A1, “TETRACYCLINE COMPOUNDS HAVING TARGET THERAPEUTIC ACTIVITIES” (Paratek Pharmaceuticals, Inc., priority 2001, published 2015).

The test system of assay [1] is S. aureus RN450. As to the kind of experiment: In Vitro Anti-Bacterial Activity Assay (MIC), gram positive. Format: cell-based. To be noted: for MIC: Staphylococcus aureus, RN450, 18 h.
Assay [2] deals with E. coli mL308 225. In words: In Vitro Anti-Bacterial Activity Assay (MIC), gram negative. It counts as cell-based. To be noted: for MIC: Escherichia coli, ML308225, 18 h.
Setting [3] is: MIC class, Table 3, read-out: Antibiotic Activity Gram +.
[4] abbreviates: MIC class, Table 3, read-out: Antibiotic Activity Gram −.
[5] abbreviates: MIC class, Table 3 (Continued), read-out: Gram+ activity.
[6] abbreviates: MIC class, Table 3 (Continued), read-out: Gram− activity.
Setting [7] is: gram positive bacteria, read-out: Antibiotic Activity Gram + (MIC).
Where [8] appears, read: gram negative bacteria, read-out: Antibiotic Activity Gram − (MIC).
The mark [9] stands for this setting: read-out: Antibiotic Activity Gram − (MIC).

Like-named read-outs stand apart in the source and are kept apart here.

As for `CC(O)CCc1ccc(O)c2c1C[C@H]1C[C@H]3[C@H](N(C)C)C(O)=C(C(N)=O)C(=O)[C@@]3(O)C(O)=C1C2=O` (stereo partly drawn) [CR], the MIC in assay [1] (setting [3]) is less than 4 µg/mL; in assay [2] (setting [4]), more than 4 µg/mL.

Consider `Cc1cc(C)cc(/C=C2\c3cccc(O)c3C(=O)C3=C(O)[C@]4(O)C(=O)C(C(N)=O)=C(O)[C@@H](N(C)C)[C@@H]4[C@@H](O)[C@@H]32)c1`, for which the MIC in assay [1] (setting [5]) and in assay [2] (setting [6]) was less than 4 µg/mL throughout.

Consider `Cc1cnc(N)n1Cc1cc(N(C)C)c2c(c1O)C(=O)C1=C(O)[C@]3(O)C(=O)C(C(N)=O)=C(O)[C@@H](N(C)C)[C@@H]3C[C@@H]1C2` [drawing 3712], for which the “Antibiotic Activity Gram + (MIC)” value in assay [1] (gram positive bacteria) was “* (compounds with an MIC of greater than 4 μg/ml are indicated with *)”. Moreover, the “Antibiotic Activity Gram − (MIC)” value in assay [2] (gram negative bacteria) is “* (compounds with an MIC of greater than 4 μg/ml are indicated with *)”.

As for `CCCCN(CCCC)Cc1cc(N(C)C)c2c(c1O)C(=O)C1=C(O)[C@]3(O)C(=O)C(C(N)=O)=C(O)C(N(C)C)[C@@H]3C[C@@H]1C2` (stereo partly drawn) [EZ], the MIC in assay [1] (setting [3]) is less than 4 µg/mL; in assay [2] (setting [4]) it was more than 4 µg/mL.

Take `Cc1noc(C)c1S(=O)(=O)NCc1ccc(O)c2c1C[C@H]1C[C@H]3[C@H](N(C)C)C(O)=C(C(N)=O)C(=O)[C@@]3(O)C(O)=C1C2=O` [IG]: the MIC in assay [1] (setting [3]) is less than 4 µg/mL; in assay [2] (setting [4]), more than 4 µg/mL.

In the case of `CN(C)[C@@H]1C(O)=C(C(N)=O)C(=O)[C@@]2(O)C(O)=C3C(=O)c4c(O)ccc(-c5ccc(CNCc6cccc(Cl)c6)cc5)c4C[C@H]3C[C@@H]12`, the MIC in assay [1] (setting [7]) and in assay [2] (setting [8]) was less than 4 µg/mL each time.

Consider `CCOc1ccc(/C=C2\c3cccc(O)c3C(=O)C3=C(O)[C@]4(O)C(=O)C(C(N)=O)=C(O)[C@@H](N(C)C)[C@@H]4[C@@H](O)[C@@H]32)cc1`, for which the MIC in assay [1] (setting [5]) was less than 4 µg/mL; in assay [2] (setting [6]) it was more than 4 µg/mL.

Regarding `CN(C)c1cc(CNC(=O)OCC(Cl)(Cl)Cl)c(O)c2c1C[C@H]1C[C@H]3[C@H](N(C)C)C(O)=C(C(N)=O)C(=O)[C@@]3(O)C(O)=C1C2=O` [FI], the MIC in assay [1] (setting [3]) was less than 4 µg/mL; in assay [2] (setting [4]), more than 4 µg/mL.

With `CN(C)c1cc(CNCc2ccc(F)cc2)c(O)c2c1C[C@H]1C[C@H]3[C@H](N(C)C)C(O)=C(C(N)=O)C(=O)[C@@]3(O)C(O)=C1C2=O`, the MIC in assay [1] (setting [7]) and in assay [2] (setting [8]) was less than 4 µg/mL in each case.

`CN(C)[C@@H]1C(O)=C(C(N)=O)C(=O)[C@@]2(O)C(O)=C3C(=O)c4c(O)ccc(CNC(=O)OCC(C)(C)C)c4C[C@H]3C[C@@H]12` [FU]: the figures for the MIC in assay [1] (setting [3]) and in assay [2] (setting [4]) were less than 4 µg/mL and more than 4 µg/mL, respectively.

As to `CC(CF)Nc1ccc(-c2ccc(O)c3c2C[C@H]2C[C@H]4[C@H](N(C)C)C(O)=C(C(N)=O)C(=O)[C@@]4(O)C(O)=C2C3=O)cc1` (stereo partly drawn), the MIC was less than 4 µg/mL in assay [1] (setting [7]) and more than 4 µg/mL in assay [2] (setting [8]).

`CN(C)c1cc(-c2ccc(CN3CCN(CCO)CC3)o2)c(O)c2c1C[C@H]1C[C@H]3[C@H](N(C)C)C(O)=C(C(N)=O)C(=O)[C@@]3(O)C(O)=C1C2=O`: the MIC in assay [1] (setting [7]) was less than 4 µg/mL; in assay [2] (setting [8]) it was more than 4 µg/mL.

For `CN(C)c1cc(F)c(O)c2c1C[C@H]1C[C@H]3C(N(C)C)C(O)=C(C(N)=O)C(=O)[C@@]3(O)C(O)=C1C2=O` (stereo partly drawn) [KZ], the MIC in assay [1] (setting [3]) and in assay [2] (setting [4]) was less than 4 µg/mL each time.

In the case of `CC(C)CNCc1ccc2c(c1O)C(=O)C1=C(O)[C@]3(O)C(=O)C(C(N)=O)=C(O)[C@@H](N(C)C)[C@@H]3[C@@H](O)[C@@H]1[C@H]2C` [JH], the MIC in assay [1] (setting [3]) and in assay [2] (setting [4]) was less than 4 µg/mL throughout.

Regarding `CN(C)[C@@H]1C(O)=C(C(N)=O)C(=O)[C@@]2(O)C(O)=C3C(=O)c4c(O)ccc(-c5ccc(NC(=O)C6CCCN6C(=O)C(F)(F)F)cc5)c4C[C@H]3C[C@@H]12` (stereo partly drawn) [OH], the values for the MIC in assay [1] (setting [3]) and in assay [2] (setting [4]) were less than 4 µg/mL and more than 4 µg/mL, respectively.

For the molecule `CN(C)[C@@H]1C(O)=C(C(N)=O)C(=O)[C@@]2(O)C(O)=C3C(=O)c4c(O)ccc(-c5ccc(CNCCF)cc5)c4C[C@H]3C[C@@H]12`, the MIC in assay [1] (setting [7]) and in assay [2] (setting [9]) was less than 4 µg/mL throughout.

On to `CC(CF)NCc1cc(N(C)C)c2c(c1O)C(=O)C1=C(O)[C@]3(O)C(=O)C(C(N)=O)=C(O)[C@@H](N(C)C)[C@@H]3C[C@@H]1C2` (stereo partly drawn), for which the MIC in assay [1] (setting [7]) was less than 4 µg/mL; in assay [2] (setting [9]), more than 4 µg/mL.

Consider `CN(C)[C@@H]1C(O)=C(C(N)=O)C(=O)[C@@]2(O)C(O)=C3C(=O)c4c(O)c(CNC(=O)c5cccnc5)cc(CCC5CCCCC5)c4C[C@H]3C[C@@H]12` [CV], for which the MIC is less than 4 µg/mL in assay [1] (setting [3]) and more than 4 µg/mL in assay [2] (setting [4]).

As for `CN(C)[C@@H]1C(O)=C(C(N)=O)C(=O)[C@@]2(O)C(O)=C3C(=O)c4c(O)ccc(-c5ccc(NC(=O)NCCCCl)cc5)c4C[C@H]3C[C@@H]12`, the figures for the MIC in assay [1] (setting [7]) and in assay [2] (setting [8]) were less than 4 µg/mL and more than 4 µg/mL, respectively.

Consider `CN(C)[C@@H]1C(O)=C(C(N)=O)C(=O)[C@@]2(O)C(O)=C3C(=O)c4c(O)ccc(-c5ccc(NC(=O)c6ccco6)cc5)c4C[C@H]3C[C@@H]12`, for which the values for the MIC in assay [1] (setting [7]) and in assay [2] (setting [8]) were less than 4 µg/mL and more than 4 µg/mL, respectively.

For `CN(C)c1cc(CN(Cc2ccccc2)CC(F)(F)F)c(O)c2c1C[C@H]1C[C@H]3[C@H](N(C)C)C(O)=C(C(N)=O)C(=O)[C@@]3(O)C(O)=C1C2=O`, the results for the MIC in assay [1] (setting [7]) and in assay [2] (setting [8]) were less than 4 µg/mL and more than 4 µg/mL, respectively.

Take `CC1c2c(-c3ccc(Cl)cc3)ccc(O)c2C(=O)C2=C(O)[C@]3(O)C(=O)C(C(N)=O)=C(O)[C@@H](N(C)C)[C@@H]3[C@@H](O)[C@@H]21` (stereo partly drawn): the MIC in assay [1] (setting [5]) and in assay [2] (setting [6]) was less than 4 µg/mL in each case.

With `Cc1ccc(O)c2c1C[C@H]1C[C@H]3[C@H](N(C)C)C(O)=C(C(N)=O)C(=O)[C@@]3(O)C(O)=C1C2=O`, the MIC in assay [1] (setting [7]) and in assay [2] (setting [8]) was less than 4 µg/mL in each case.

In the case of `CN(C)c1cc(CNC(=O)C2(N)CC2)c(O)c2c1C[C@H]1C[C@H]3[C@H](N(C)C)C(O)=C(C(N)=O)C(=O)[C@@]3(O)C(O)=C1C2=O`, the MIC was less than 4 µg/mL in assay [1] (setting [7]) and more than 4 µg/mL in assay [2] (setting [8]).

Take `CN(C)[C@@H]1C(O)=C(C(N)=O)C(=O)[C@@]2(O)C(O)=C3C(=O)c4c(ccc(NC5CC(C)(C)NC(C)(C)C5)c4O)C[C@H]3C[C@@H]12` [LF]: the MIC in assay [1] (setting [3]) is less than 4 µg/mL; in assay [2] (setting [4]), more than 4 µg/mL.

For `CN(C)[C@@H]1C(O)=C(C(N)=O)C(=O)[C@@]2(O)C(O)=C3C(=O)c4c(O)ccc(CN5CCOCC5)c4C[C@H]3C[C@@H]12`, the MIC in assay [1] (setting [7]) was less than 4 µg/mL; in assay [2] (setting [8]) it was more than 4 µg/mL.

On to `Cc1ccc(OC(=O)NCc2cc(N(C)C)c3c(c2O)C(=O)C2=C(O)[C@]4(O)C(=O)C(C(N)=O)=C(O)[C@@H](N(C)C)[C@@H]4C[C@@H]2C3)cc1` [FG], for which the values for the MIC in assay [1] (read-out: Antibiotic Activity Gram +) and in assay [2] (read-out: Antibiotic Activity Gram −) were less than 4 µg/mL and more than 4 µg/mL, respectively.

Turning to `CN(C)[C@@H]1C(O)=C(C(N)=O)C(=O)[C@@]2(O)C(O)=C3C(=O)c4c(O)ccc(CNC(=O)c5cc(O)ncn5)c4C[C@H]3C[C@@H]12`, the results for the MIC in assay [1] (setting [7]) and in assay [2] (setting [8]) were less than 4 µg/mL and more than 4 µg/mL, respectively.

In the case of `CN(C)[C@@H]1C(OCc2ccccc2)=C(C(N)=O)C(=O)[C@@]2(O)C(O)=C3C(=O)c4c(O)ccc(-c5ccc(C(F)(F)F)cc5)c4C[C@H]3C[C@@H]12` [OU], the MIC in assay [1] (setting [3]) was less than 4 µg/mL; in assay [2] (setting [4]), more than 4 µg/mL.

As for `CCCCOC(=O)NCc1cc(N(C)C)c2c(c1O)C(=O)C1=C(O)[C@]3(O)C(=O)C(C(N)=O)=C(O)[C@H](N(C)C)[C@@H]3C[C@@H]1C2` [ER], the MIC in assay [1] (setting [3]) was less than 4 µg/mL; in assay [2] (setting [4]), more than 4 µg/mL.

Take `CN(C)[C@@H]1C(O)=C(C(N)=O)C(=O)[C@@]2(O)C(O)=C3C(=O)c4c(ccc(NC(=O)N5CCOCC5)c4O)C[C@H]3C[C@@H]12` [IL]: the MIC in assay [1] (setting [3]) and in assay [2] (setting [4]) was more than 4 µg/mL in each case.

Consider `COc1cccc(CCc2ccc(O)c3c2C[C@H]2C[C@H]4[C@H](N(C)C)C(O)=C(C(N)=O)C(=O)[C@@]4(O)C(O)=C2C3=O)c1` [BK], for which the MIC was less than 4 µg/mL in assay [1] (setting [3]) and more than 4 µg/mL in assay [2] (setting [4]).

`CC1c2ccc(C3(C)CCCC3)c(O)c2C(=O)C2=C(O)[C@]3(O)C(=O)C(C(N)=O)=C(O)[C@@H](N(C)C)[C@@H]3[C@@H](O)[C@@H]21` (stereo partly drawn): the MIC in assay [1] (setting [5]) and in assay [2] (setting [6]) was less than 4 µg/mL throughout.

Consider `CC(C)Cc1cc(N(C)C)c2c(c1O)C(=O)C1=C(O)[C@]3(O)C(=O)C(C(N)=O)=C(O)[C@@H](N(C)C)[C@@H]3C[C@@H]1C2`, for which the MIC in assay [1] (setting [7]) and in assay [2] (setting [8]) was less than 4 µg/mL throughout.

For the molecule `CN(C)[C@@H]1C(O)=C(C(N)=O)C(=O)[C@@]2(O)C(O)=C3C(=O)c4c(O)c(CNC5CCCC5)cc(-c5ccoc5)c4C[C@H]3C[C@@H]12`, the MIC in assay [1] (setting [7]) was less than 4 µg/mL; in assay [2] (setting [8]) it was more than 4 µg/mL.

Regarding `CN(C)[C@@H]1C(O)=C(C(N)=O)C(=O)[C@@]2(O)C(O)=C3C(=O)c4c(O)ccc(S(=O)(=O)O)c4C[C@H]3C[C@@H]12`, the MIC in assay [1] (setting [7]) and in assay [2] (setting [8]) was more than 4 µg/mL each time.

For `CN(C)c1cc(C#CCNS(C)(=O)=O)c(O)c2c1C[C@H]1C[C@H]3[C@H](N(C)C)C(O)=C(C(N)=O)C(=O)[C@@]3(O)C(O)=C1C2=O`, the MIC in assay [1] (setting [7]) and in assay [2] (setting [8]) was more than 4 µg/mL in each case.

In the case of `CCC1(C)CCN(Cc2cc(N(C)C)c3c(c2O)C(=O)C2=C(O)[C@]4(O)C(=O)C(C(N)=O)=C(O)[C@@H](N(C)C)[C@@H]4C[C@@H]2C3)CC1`, the MIC in assay [1] (setting [7]) and in assay [2] (setting [8]) was less than 4 µg/mL throughout.

Consider `CN(C)c1ccc(OCc2ccccc2)c2c1C[C@H]1C[C@H]3[C@H](N(C)C)C(OCc4ccccc4)=C(C(N)=O)C(=O)[C@@]3(O)C(O)=C1C2=O` [ON], for which the MIC in assay [1] (setting [3]) and in assay [2] (setting [4]) was more than 4 µg/mL in each case.
